Reference: PMC5829162, “Rational Design, Synthesis and Biological Evaluation of Pyrimidine-4,6-diamine derivatives as Type-II inhibitors of FLT3 Selective Against c-KIT” (Scientific Reports, 2018)

Key:
FLT3 kinase = target: T1, FLT3 kinase (Homo sapiens, UniProt P36888); test: Biochemical enzyme inhibition assay (microfluidics, Caliper EZ Reader II), FLT3
T1 construct: purchased Invitrogen
T1 sequence (P36888 27-993): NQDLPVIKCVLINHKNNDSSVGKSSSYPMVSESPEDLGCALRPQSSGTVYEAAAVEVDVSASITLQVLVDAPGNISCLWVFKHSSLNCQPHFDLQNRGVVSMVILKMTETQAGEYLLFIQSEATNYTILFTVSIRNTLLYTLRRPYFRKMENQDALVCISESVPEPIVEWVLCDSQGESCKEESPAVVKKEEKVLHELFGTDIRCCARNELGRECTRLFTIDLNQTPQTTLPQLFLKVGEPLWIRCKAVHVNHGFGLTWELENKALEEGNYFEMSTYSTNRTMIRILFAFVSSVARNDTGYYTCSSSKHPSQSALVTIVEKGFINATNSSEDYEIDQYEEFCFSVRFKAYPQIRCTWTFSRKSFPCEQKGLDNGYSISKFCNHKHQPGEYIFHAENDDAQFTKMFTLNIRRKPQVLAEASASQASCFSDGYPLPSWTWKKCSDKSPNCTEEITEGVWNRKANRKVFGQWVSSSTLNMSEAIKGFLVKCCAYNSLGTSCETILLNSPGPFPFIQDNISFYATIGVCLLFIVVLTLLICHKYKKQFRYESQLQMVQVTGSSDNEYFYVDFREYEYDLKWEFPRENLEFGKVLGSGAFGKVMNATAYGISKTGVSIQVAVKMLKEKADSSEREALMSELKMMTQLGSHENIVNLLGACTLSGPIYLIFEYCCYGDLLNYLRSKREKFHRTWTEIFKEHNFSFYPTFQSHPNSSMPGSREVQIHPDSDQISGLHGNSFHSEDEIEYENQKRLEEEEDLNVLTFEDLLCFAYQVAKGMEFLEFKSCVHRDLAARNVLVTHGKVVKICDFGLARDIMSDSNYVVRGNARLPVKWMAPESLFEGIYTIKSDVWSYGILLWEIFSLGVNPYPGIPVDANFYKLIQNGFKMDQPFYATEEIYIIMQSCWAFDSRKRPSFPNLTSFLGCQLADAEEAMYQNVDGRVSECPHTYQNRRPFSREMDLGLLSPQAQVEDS
Protocol: Kinase activity was measured in a microfluidics assay that monitors the separation of a phosphorylated product from substrate[31],[32]. […] After, 1 μL was transferred into a 384-well polypropylene assay plate (Greiner, Frickenhausen, Germany). The FLT3 enzyme (Invitrogen™, Grand Island, USA) was diluted in kinase buffer to a concentration of 2 nM and 5 µL of the enzyme mixture was transferred to the assay plate. The inhibitors/FLT3 enzyme were incubated for 60 minutes with minor shaking. […] For positive control, no inhibitor was added. For negative control, no enzyme was added. For running control, quizartinib was utilized. The plate was run until 10–20% conversion based on the positive control wells. The following separation conditions were utilized: upstream voltage −500V; downstream voltage, −1900V; chip pressure −0.8. Percent inhibition was measured for each well comparing starting peptide to phosphorylated product peaks relative to the baseline. Dose response curves, spanning the IC50 dose, were generated in GraphPad Prisim 6 and fit to an exponential one-phase decay line and IC50 values were obtained from the half-life value of the curve. IC50 values were generated in duplicate and error was calculated from the standard deviation between values.
S10. Biochemical Inhibition Assay:1,2 Kinase activity was measured in a microfluidics assay that monitors the separation of a phosphorylated product from substrate. The assay was run using a 12-sipper chip on a Caliper EZ Reader II (PerkinElmer®, Walthman, USA) with separation […]
Walthman, USA]). In 96-well polypropylene plates (Greiner, Frickenhausen, Germany) […]
After, 1 μL was transferred into a 384-well polypropylene assay plate (Greiner, Frickenhausen, Germany). The FLT3 enzyme (Invitrogen™, Grand Island, USA) was diluted in kinase buffer to a concentration of 2 nM and 5 µL of the enzyme mixture was transferred to the assay plate. The inhibitors/FLT3 enzyme were incubated for 60 minutes with minor shaking. A substrate mix was prepared containing ATP (Ambresco®, Solon, USA) and […]
USA) dissolved in kinase buffer, and 5 µL of the substrate mix was added to the assay plate.
For positive control, no inhibitor was added. For negative control, no enzyme was added. For running control, quizartinib was utilized. The plate was run until 10-20% conversion based on the positive control wells. The following separation conditions were utilized: upstream voltage -500V; downstream voltage, -1900V; chip pressure - 0.8. Percent inhibition was measured for each well comparing starting peptide to phosphorylated product peaks relative to the baseline. Dose response curves, spanning the IC50 dose, were generated in GraphPad Prisim 6 and fit to an exponential one-phase decay line and IC50 values were obtained from the half-life value of the curve. IC50 values were generated in duplicate and error was calculated from the standard deviation between values. […]

MV4–11 AML cells = test: Cell proliferation (CellTiter-Glo, 48 h), MV4-11; type: cell-based; conditions: Homo sapiens; MV4–11, 48 hours
Excerpt: (§1) Stable BaF3 populations expressing activated FLT3 were generated by retroviral spinfection with the appropriate mutated plasmid followed by selection and growth factor withdrawal as previously described. The BaF3 cell line was originally obtained from the laboratory of Charles Sawyers and has not been authenticated. MV411 and Molm14 cells were obtained from the laboratory of Scott Kogan and authenticated by Promega STR analysis in June 2013. All cell lines were mycoplasma-free. Cells were incubated with compounds for 48 hours and proliferation was assessed using CellTiter-Glo (Promega; Madison, WI) according to the manufacturer’s recommendation on a SpectraMax M3 microplate reader using SpectraMax Software (Molecular Devices; Sunnyvale, CA). All cell viability data shown is reflective of experiments performed a minimum of three times. […]
S13. Cell Cultures: Stable BaF3 populations expressing activated FLT3 were generated by retroviral spinfection with the appropriate mutated plasmid followed by selection and growth factor withdrawal as previously described .4 The BaF3 cell line was originally obtained from the laboratory of Charles Sawyers and has not been authenticated. MV411 and Molm14 cells were obtained from the laboratory of Scott Kogan and authenticated by Promega STR analysis in June
2013. All cell lines were mycoplasma -free. Cells were incubated with compounds for 48 hours and proliferation was assessed using CellTiter -Glo (Promega; Madison, WI) according to the manufacturer’s recommendation on a SpectraMax M3 microplate reader using SpectraMax Software (Molecular Devices; Sunnyvale, CA). All cell viability data shown is reflective of experiments performed a minimum of three times.

FLT3-driven cell lines = test: Cell-based studies, FLT3-driven cell lines overall; conditions: result in words
Excerpt: as §1
S13. […]
2013. […] Cells were incubated with compounds for 48 hours and proliferation was assessed using CellTiter -Glo (Promega; Madison, WI) according to the manufacturer’s recommendation on a SpectraMax M3 microplate reader using SpectraMax Software (Molecular Devices; Sunnyvale, CA). […]

Cn1nc(C(C)(C)C)cc1NC(=O)Cc1ccc(Nc2cc(NCCCN3CCCC3)ncn2)cc1 [13d, 2-(4-(6-(3-(Pyrrolidin-1-yl)propylamino)pyrimidin-4-ylamino)phenyl)-N-(3-tert-butyl-1-methyl-1H-pyrazol-5-yl)acetamide]
IC50 (FLT3 kinase; in vitro kinase assay, 60 min pre-incubation, ATP 190 µM, three independent experiments, read-out: FLT3 IC50 (nM) ± SD): 377 ± 20 nM
LE (FLT3 kinase; ligand efficiency for FLT3 inhibition): 0.24
GI50 (MV4–11 AML cells): 2.25 µM
inhibition of FLT3-driven cellular growth (FLT3-driven cell lines): failed to effectively inhibit FLT3-driven cellular growth
